Assay results as given in patent US8883826B2, “Alkynyl derivatives as modulators of metabotropic glutamate receptors” (Addex Pharma SA, priority 2004, dated 2014).

Key:
mGluR5 = biological target: T1, mGluR5 (Rattus norvegicus, UniProt P31424); assay: mGluR5 binding assay ([3H]-MPEP radioligand competition); conditions: competition with 3 nM [3H]-MPEP, rat brain cortical membranes, 1 h at 4 °C; mean of at least three independent experiments in duplicate
T1 construct: tissue Charles River Laboratories; host or cells: rat brain cortex membranes (Sprague-Dawley)
T1 sequence (P31424 21-1203): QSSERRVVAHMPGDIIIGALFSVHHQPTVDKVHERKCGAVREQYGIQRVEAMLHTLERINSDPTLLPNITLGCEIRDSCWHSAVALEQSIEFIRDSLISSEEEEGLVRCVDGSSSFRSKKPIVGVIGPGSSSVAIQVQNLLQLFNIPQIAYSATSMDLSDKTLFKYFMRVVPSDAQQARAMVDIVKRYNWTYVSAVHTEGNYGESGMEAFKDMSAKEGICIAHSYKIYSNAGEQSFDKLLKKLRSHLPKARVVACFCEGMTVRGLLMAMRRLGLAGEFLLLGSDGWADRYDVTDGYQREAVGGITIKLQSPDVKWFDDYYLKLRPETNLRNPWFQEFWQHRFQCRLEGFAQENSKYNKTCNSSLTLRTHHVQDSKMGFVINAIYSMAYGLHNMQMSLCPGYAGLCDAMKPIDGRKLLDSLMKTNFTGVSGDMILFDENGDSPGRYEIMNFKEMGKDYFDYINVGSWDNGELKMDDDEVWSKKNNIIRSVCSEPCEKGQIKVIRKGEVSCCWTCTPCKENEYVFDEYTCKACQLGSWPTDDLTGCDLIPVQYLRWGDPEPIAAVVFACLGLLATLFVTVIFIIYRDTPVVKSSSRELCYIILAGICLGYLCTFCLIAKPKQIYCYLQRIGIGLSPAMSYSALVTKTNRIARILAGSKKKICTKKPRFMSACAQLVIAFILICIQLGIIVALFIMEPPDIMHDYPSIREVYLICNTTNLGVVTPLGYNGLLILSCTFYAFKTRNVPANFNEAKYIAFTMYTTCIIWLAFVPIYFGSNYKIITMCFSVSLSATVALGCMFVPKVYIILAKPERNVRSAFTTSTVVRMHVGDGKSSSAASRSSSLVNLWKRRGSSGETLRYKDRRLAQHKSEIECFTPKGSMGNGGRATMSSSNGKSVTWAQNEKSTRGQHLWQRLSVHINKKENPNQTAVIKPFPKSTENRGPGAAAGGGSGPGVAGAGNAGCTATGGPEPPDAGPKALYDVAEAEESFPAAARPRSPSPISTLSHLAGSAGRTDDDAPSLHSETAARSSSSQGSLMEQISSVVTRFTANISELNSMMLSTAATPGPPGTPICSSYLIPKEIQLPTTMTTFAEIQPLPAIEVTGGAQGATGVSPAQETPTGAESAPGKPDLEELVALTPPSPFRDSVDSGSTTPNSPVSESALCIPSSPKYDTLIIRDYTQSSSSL
Summary of the method: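 Rat cortical membranes (50 μg) were incubated 1 h at 4 °C with 3 nM [3H]-MPEP and compound (0.003 nM-30 μM, 8 points) in HEPES buffer pH 7.4 with Mg2+, Ca2+ and NaCl. 30 μM MPEP defined non-specific binding, and bound label was counted after filtration. IC50 came from non-linear regression, as the mean of ≥3 experiments run in duplicate.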

| Compound | IC50 (mGluR5) [µM] | melting point |
| --- | --- | --- |
| Cc1ccc(F)cc1-c1noc(CCC#Cc2ccccn2)n1 [Example 59, 2-(4-(3-(5-Fluoro-2-methylphenyl)-1,2,4-oxadiazol-5-yl)but-1-ynyl)pyridine] | < 10 | 90 to 91 °C |
| Cc1ccc(Cl)cc1-c1noc(CCC#Cc2ccccn2)n1 [Example 60, 2-(4-(3-(5-Chloro-2-methylphenyl)-1,2,4-oxadiazol-5-yl)but-1-ynyl)pyridine] | < 10 | 66 to 68 °C |
| Fc1cc(F)c2oc(CCC#Cc3ccccn3)nc2c1 [Example 89, 5,7-Difluoro-2-(4-(pyridin-2-yl)but-3-ynyl)benzo[d]oxazole] | < 0.05 | 93.5 to 94 °C |
| Fc1cccc2oc(CCC#Cc3ccccn3)nc12 [Example 90, 4-Fluoro-2-(4-(pyridin-2-yl)but-3-ynyl)benzo[d]oxazole] | < 0.05 | 89 to 89.5 °C |
| N#Cc1cccc2nc(CCC#Cc3ccccn3)oc12 [Example 92, 2-(4-(Pyridin-2-yl)but-3-ynyl)benzo[d]oxazole-7-carbonitrile] | < 0.05 | 126 to 126.5 °C |
| Fc1ccc(Cl)c2oc(CCC#Cc3ccccn3)nc12 [Example 93, 7-Chloro-4-fluoro-2-(4-(pyridin-2-yl)but-3-ynyl)benzo[d]oxazole] | < 0.05 | 102 to 103 °C |
| O=c1n(CCC#Cc2cccc(CF)n2)nc2ccccn12 [Example 120, 2-(4-(6-(Fluoromethyl)pyridin-2-yl)but-3-ynyl)-[1,2,4]triazolo[4,3-a]pyridin-3(2H)-one] | < 10 | 106 to 107 °C |
| FCc1cccc(C#CCCc2ccc3ccccc3n2)n1 [Example 126, 2-(4-(6-(Fluoromethyl)pyridin-2-yl)but-3-ynyl)quinoline] | < 0.05 | 70.2 to 74.3 °C |
| FCc1cccc(C#CCCc2cnc3ccccc3n2)n1 [Example 129, 2-(4-(6-(Fluoromethyl)pyridin-2-yl)but-3-ynyl)quinoxaline] | < 0.05 | 136 °C (dec.) |
| Cl.FCc1cccc(C#CCCn2nc3cc(F)cc(F)c3n2)n1 [Example 131, 4,6-Difluoro-2-(4-(6-(fluoromethyl)pyridin-2-yl)but-3-ynyl)-2H-benzo[d][1,2,3]triazole hydrochloride] | < 0.05 | 128 to 130 °C |
| Cl.FCc1cccc(C#CCCn2nc3ccc(F)c(F)c3n2)n1 [Example 132, 4,5-Difluoro-2-(4-(6-(fluoromethyl)pyridin-2-yl)but-3-ynyl)-2H-benzo[d][1,2,3]triazole hydrochloride] | < 0.05 | 157 to 159 °C |
| FC(F)c1cccc(C#CCCn2nc3ccccc3n2)n1 [Example 134, 2-(4-(6-(Difluoromethyl)pyridin-2-yl)but-3-ynyl)-2H-benzo[d][1,2,3]triazole] | < 10 | 101.8 to 102.9 °C |
| FCc1cccc(C#CCCc2cnc3cc(F)c(F)cc3n2)n1 [Example 148, 6,7-Difluoro-2-(4-(6-(fluoromethyl)pyridin-2-yl)but-3-ynyl)quinoxaline] | < 10 | 134.9 to 138.5 °C |
| Fc1cc2nn(CCC#Cc3ccccn3)nc2cc1F [Example 153, 5,6-Difluoro-2-(4-(pyridin-2-yl)but-3-ynyl)-2H-benzo[d][1,2,3]triazole] | < 10 | 131 to 132 °C |
| FCc1cccc(C#CCCn2nc3cc(F)c(F)cc3n2)n1 [Example 154, 5,6-Difluoro-2-(4-(6-(fluoromethyl)pyridin-2-yl)but-3-ynyl)-2H-benzo[d][1,2,3]triazole] | < 10 | 104 to 105 °C |
| CNc1cccc(C#CCCn2nc3ccccc3n2)n1 [Example 167, 6-(4-(2H-Benzo[d][1,2,3]triazol-2-yl)but-1-ynyl)-N-methylpyridin-2-amine] | < 0.5 | 150 to 154 °C |
| Fc1ccc(-c2cc(CCC#Cc3ccccn3)on2)cc1 [Example 168, 2-(4-(3-(4-Fluorophenyl)isoxazol-5-yl)but-1-ynyl)pyridine] | < 10 | 83 to 84 °C |
| CC(=O)Nc1cccc(C#CCCn2nc3ccccc3n2)n1 [Example 169, N-(6-(4-(2H-Benzo[d][1,2,3]triazol-2-yl)but-1-ynyl)pyridin-2-yl)acetamide] | < 10 | 93 to 94 °C |
| CCNc1cccc(C#CCCn2nc3ccccc3n2)n1 [Example 170, 6-(4-(2H-Benzo[d][1,2,3]triazol-2-yl)but-1-ynyl)-N-ethylpyridin-2-amine] | < 10 | 73 to 78 °C |
| Fc1ccc(-c2cn(CCC#Cc3ccccn3)nn2)cc1 [Example 179, 2-(4-(4-(4-Fluorophenyl)-1H-1,2,3-triazol-1-yl)but-1-ynyl)pyridine] | < 0.5 | 120 to 122 °C |
| O=c1c2ccccc2ccn1CCC#Cc1ccccn1 [Example 183, 2-(4-(Pyridin-2-yl)but-3-ynyl)isoquinolin-1(2H)-one] | < 0.5 | 85 to 90 °C |
| O=C(CCC#Cc1ccccn1)Nc1ccccc1F [Example 186, N-(2-Fluorophenyl)-5-(pyridin-2-yl)pent-4-ynamide] | < 10 | 82 to 84 °C |
| O=C(CCC#Cc1ccccn1)Nc1cccc(F)c1 [Example 187, N-(3-Fluorophenyl)-5-(pyridin-2-yl)pent-4-ynamide] | < 10 | 110 to 114 °C |
| Cc1cc(F)ccc1NC(=O)CCC#Cc1ccccn1 [Example 188, N-(4-Fluoro-2-methyl-phenyl)-5-(pyridin-2-yl)pent-4-ynamide] | < 10 | 110 to 114 °C |
| Cn1c(CCC#Cc2cccc(CF)n2)nc2ccccc21 [Example 190, 2-(4-(6-(Fluoromethyl)pyridin-2-yl)but-3-ynyl)-1-methyl-1H-benzo[d]imidazole] | < 0.5 | 95.3 to 96.3 °C |
| Cn1c(CCC#Cc2cccc(CF)n2)nc2c(F)cc(F)cc21 [Example 193, 4,6-Difluoro-2-(4-(6-(fluoromethyl)pyridin-2-yl)but-3-ynyl)-1-methyl-1H-benzo[d]imidazole] | < 0.5 | 103 to 104 °C |
| Cc1nc(C#CCCn2nc3ccccc3n2)sc1C [Example 222, 2-(4-(4,5-Dimethylthiazol-2-yl)but-3-ynyl)-2H-benzo[d][1,2,3]triazole] | < 10 | 96 to 98 °C |
| FCc1cccc(C#CCCc2cn3cc(F)ccc3n2)n1 [Example 223, 6-Fluoro-2-(4-(6-(fluoromethyl)pyridin-2-yl)but-3-ynyl)H-imidazo[1,2-a]pyridine] | < 0.5 | 140 to 141.8 °C |
| FCc1nc(C#CCCc2cn3cc(F)ccc3n2)cs1 [Example 224, 6-Fluoro-2-(4-(2-(fluoromethyl)thiazol-4-yl)but-3-ynyl)-imidazo[1,2-a]pyridine] | < 0.05 | 82 to 84 °C |
| FCc1cccc(C#CCCc2cn3cccc(OCc4ccccc4)c3n2)n1 [Example 226, 8-(Benzyloxy)-2-(4-(6-(fluoromethyl)pyridin-2-yl)but-3-ynyl)-imidazo[1,2-a]pyridine] | < 10 | 92 to 94 °C |
